{"source": "patent US20120100989A1", "about": "“3-Aryl-4-(2-thienylmethylene)isoxazol-5(4H)-ones as Fungicides” (Bayer CropScience AG, priority 2010, published 2012)"}
{"tested_on": "not listed separately", "assay": "log P by HPLC on reversed-phase columns (C 18), EEC directive 79/831 Annex V.A8", "format": "physicochemical", "details": "pH 2.7", "method": "(§1) The log P values were measured according to EEC directive 79/831 Annex V.A8 by HPLC (High Performance Liquid Chromatography) on reversed-phase columns (C 18), using the method below:\n(§2) The determination was carried out in the acidic range at pH 2.7 using the mobile phases 0.1% aqueous formic acid and acetonitrile; linear gradient from 10% acetonitrile to 95% acetonitrile."}
{"molecule": "O=C1ON=C(c2ccc(Cl)cc2)C1=Cc1cccs1", "note": "[I-5]", "log P": 3.44}
{"molecule": "Cc1ccc(C=C2C(=O)ON=C2c2ccc(F)cc2)s1", "note": "[I-33]", "log P": 3.34}
{"molecule": "O=C1ON=C(c2ccc(C(F)(F)F)cc2)C1=Cc1cccs1", "note": "[I-56]", "log P": 3.68}
{"molecule": "COc1ccc(C2=NOC(=O)C2=Cc2ccc(C)s2)cc1", "note": "[U-9]", "log P": 3.28}
{"molecule": "CC(C)(C)c1ccc(C2=NOC(=O)C2=Cc2cccs2)cc1", "note": "[I-29]", "log P": 4.39}
{"molecule": "COc1cccc(C2=NOC(=O)C2=Cc2ccc(C)s2)c1", "note": "[U-12]", "log P": 3.34}
{"molecule": "O=C1ON=C(c2ccccc2)C1=Cc1ccc(Cl)s1", "note": "[I-105]", "log P": 3.76}
{"molecule": "CCOc1ccccc1C1=NOC(=O)C1=Cc1cc(-c2ccccc2)cs1", "note": "[I-112]", "log P": 4.44}
{"molecule": "Cc1ccsc1C=C1C(=O)ON=C1c1cccc(F)c1", "note": "[I-102]", "log P": 3.31}
{"molecule": "COc1ccc(C2=NOC(=O)C2=Cc2cccs2)cc1OC", "note": "[U-19]", "log P": 3.01}
{"molecule": "COc1cccc(C2=NOC(=O)C2=Cc2cc(-c3ccccc3)cs2)c1", "note": "[I-52]", "log P": 4.27}
{"molecule": "O=C1ON=C(c2ccc(OC(F)(F)F)cc2)C1=Cc1ccc(Cl)s1", "note": "[I-36]", "log P": 4.42}
{"molecule": "O=C1ON=C(c2ccc(Cl)cc2)C1=Cc1cc(Br)c(Br)s1", "note": "[I-45]", "log P": 4.88}
{"molecule": "O=C1ON=C(c2ccccc2)C1=Cc1cc(Br)cs1", "note": "[U-36]", "log P": 3.71}
{"molecule": "COc1cccc(C2=NOC(=O)C2=Cc2ccc([N+](=O)[O-])s2)c1", "note": "[U-15]", "log P": 3.38}
{"molecule": "Cc1ccsc1C=C1C(=O)ON=C1c1ccccc1I", "note": "[I-107]", "log P": 3.56}
{"molecule": "O=C1ON=C(c2ccc(F)cc2)C1=Cc1ccc([N+](=O)[O-])s1", "note": "[I-54]", "log P": 3.32}
{"molecule": "COc1ccc(C2=NOC(=O)C2=Cc2sccc2C)cc1OC", "note": "[U-26]", "log P": 3.17}
{"molecule": "O=C1ON=C(c2cc(Br)ccc2Cl)C1=Cc1cccs1", "note": "[I-128]", "log P": 3.74}
{"molecule": "Cc1ccc(C2=NOC(=O)C2=Cc2ccc(Br)s2)cc1", "note": "[I-48]", "log P": 4.12}
{"molecule": "Cc1ccc(C2=NOC(=O)C2=Cc2ccc(Cl)s2)cc1", "note": "[I-42]", "log P": 4.05}
{"molecule": "Cc1ccc(C2=NOC(=O)C2=Cc2ccc([N+](=O)[O-])s2)cc1", "note": "[U-18]", "log P": 3.62}
{"molecule": "O=C1ON=C(c2ccc(-c3ccccc3)cc2)C1=Cc1cccs1", "note": "[I-66]", "log P": 4.16}
{"molecule": "O=C1ON=C(c2ccccc2C(F)(F)F)C1=Cc1cccs1", "note": "[I-21]", "log P": 3.03}
{"molecule": "Cc1ccc(C=C2C(=O)ON=C2c2ccccc2)s1", "note": "[U-3]", "log P": 3.27}
{"molecule": "CCOc1ccccc1C1=NOC(=O)C1=Cc1ccc(Br)s1", "note": "[I-118]", "log P": 4.03}
{"molecule": "COc1cc(OC)cc(C2=NOC(=O)C2=Cc2ccc(C)s2)c1", "note": "[U-20]", "log P": 3.48}
{"molecule": "Cc1c(C=C2C(=O)ON=C2c2ccc(F)cc2)sc2ccccc12", "note": "[I-143]", "log P": 4.18}
{"molecule": "Cc1ccsc1C=C1C(=O)ON=C1c1ccc([N+](=O)[O-])cc1", "note": "[U-23]", "log P": 3.18}
{"molecule": "Cc1cccc(C2=NOC(=O)C2=Cc2ccc(C)s2)c1", "note": "[I-85]", "log P": 3.67}
{"molecule": "O=C1ON=C(c2ccccc2)/C1=C/c1ccc([N+](=O)[O-])s1", "note": "[U-41]", "log P": 3.27}
{"molecule": "O=C1ON=C(c2ccc(F)cc2)C1=Cc1sccc1Br", "note": "[I-60]", "log P": 3.74}
{"molecule": "Cc1c(C=C2C(=O)ON=C2c2ccc(Cl)cc2)sc2ccccc12", "note": "[I-144]", "log P": 4.63}
{"molecule": "O=C1ON=C(c2ccc(-c3ccccc3)cc2)C1=Cc1ccc(Br)s1", "note": "[I-75]", "log P": 4.88}
{"molecule": "Cc1ccsc1C=C1C(=O)ON=C1c1cc(F)ccc1Cl", "note": "[I-130]", "log P": 3.55}
{"molecule": "COc1cccc(C2=NOC(=O)C2=Cc2cccs2)c1", "note": "[U-6]", "log P": 2.90}
{"molecule": "Cc1ccsc1C=C1C(=O)ON=C1c1ccc(Cl)cc1", "note": "[I-26]", "log P": 3.70}
{"molecule": "O=C1ON=C(c2ccccc2Cl)C1=Cc1cccs1", "note": "[I-6]", "log P": 3.17}
{"molecule": "O=C1ON=C(c2ccc(F)cc2)C1=Cc1cccs1", "note": "[I-2]", "log P": 3.01}
{"molecule": "COc1cccc(C2=NOC(=O)C2=Cc2cccs2)c1OC", "note": "[U-30]", "log P": 2.97}
{"molecule": "Cc1ccc(C2=NOC(=O)C2=Cc2cc(Br)cs2)cc1", "note": "[U-7]", "log P": 4.09}
{"molecule": "O=C1ON=C(c2ccccc2OC(F)(F)F)C1=Cc1cccs1", "note": "[I-121]", "log P": 3.43}
{"molecule": "COc1cc(OC)cc(C2=NOC(=O)C2=Cc2cccs2)c1", "note": "[U-21]", "log P": 3.20}
{"molecule": "O=C1ON=C(c2cccc(C(F)(F)F)c2)C1=Cc1cccs1", "note": "[I-57]", "log P": 3.61}
{"molecule": "CCOc1ccccc1C1=NOC(=O)C1=Cc1cccs1", "note": "[I-119]", "log P": 3.25}
{"molecule": "COc1ccc(F)cc1C1=NOC(=O)C1=Cc1cccs1", "note": "[U-31]", "log P": 3.06}
{"molecule": "COc1cccc(C2=NOC(=O)C2=Cc2sccc2C)c1", "note": "[U-13]", "log P": 3.24}
{"molecule": "O=C1ON=C(c2ccc(Cl)c(Cl)c2)C1=Cc1cccs1", "note": "[I-7]", "log P": 3.89}
{"molecule": "CCOc1ccc(C2=NOC(=O)C2=Cc2ccc(Br)s2)cc1", "note": "[I-83]", "log P": 4.20}
{"molecule": "Cc1cccc(C2=NOC(=O)C2=Cc2sccc2C)c1", "note": "[I-86]", "log P": 3.60}
{"molecule": "O=C1ON=C(c2cccc([N+](=O)[O-])c2)C1=Cc1cccs1", "note": "[I-24]", "log P": 2.94}
{"molecule": "Cc1cc(C)cc(C2=NOC(=O)C2=Cc2sccc2C)c1", "note": "[I-88]", "log P": 4.03}
{"molecule": "COc1ccc(C2=NOC(=O)C2=Cc2sccc2C)c(OC)c1", "note": "[U-27]", "log P": 2.81}
{"molecule": "O=C1ON=C(c2ccccc2)C1=Cc1cc(Br)c(Br)s1", "note": "[I-111]", "log P": 4.46}
{"molecule": "COc1ccc(C2=NOC(=O)C2=Cc2ccc([N+](=O)[O-])s2)cc1", "note": "[U-17]", "log P": 6.31}
{"molecule": "O=C1ON=C(c2ccccc2)C1=Cc1ccc(Br)s1", "note": "[I-1]", "log P": 3.71}
{"molecule": "COc1cccc(OC)c1C1=NOC(=O)C1=Cc1cccs1", "note": "[U-22]", "log P": 2.79}
{"molecule": "COc1ccc(F)cc1C1=NOC(=O)C1=Cc1sccc1C", "note": "[U-32]", "log P": 3.21}
{"molecule": "O=C1ON=C(c2cc(F)ccc2Cl)C1=Cc1sccc1Cl", "note": "[I-136]", "log P": 3.95}
{"molecule": "Cc1cccc(C2=NOC(=O)C2=Cc2ccc(Br)s2)c1", "note": "[I-84]", "log P": 4.14}
{"molecule": "Cc1cccc(C2=NOC(=O)C2=Cc2cccs2)c1C", "note": "[I-123]", "log P": 3.48}
{"molecule": "O=C1ON=C(c2cc(F)ccc2Cl)C1=Cc1cc(Br)cs1", "note": "[I-137]", "log P": 3.95}
{"molecule": "Cc1c(C=C2C(=O)ON=C2c2ccccc2Cl)sc2ccccc12", "note": "[I-140]", "log P": 4.31}
{"molecule": "O=C1ON=C(c2cc(F)ccc2Cl)C1=Cc1ccc(Br)s1", "note": "[I-129]", "log P": 4.06}
{"molecule": "O=C1ON=C(c2ccccc2OCc2ccccc2)C1=Cc1cc(-c2ccccc2)cs1", "note": "[I-114]", "log P": 4.80}
{"molecule": "CCOc1ccc(C2=NOC(=O)C2=Cc2ccc(C)s2)cc1", "note": "[I-81]", "log P": 3.70}
{"molecule": "Cc1ccsc1C=C1C(=O)ON=C1c1c(F)cccc1F", "note": "[I-73]", "log P": 3.17}
{"molecule": "COc1cccc(C2=NOC(=O)C2=Cc2ccc(Br)s2)c1", "note": "[I-68]", "log P": 3.79}
{"molecule": "O=C1ON=C(c2ccccc2Cl)C1=Cc1ccc(Br)s1", "note": "[I-103]", "log P": 3.94}
{"molecule": "O=C1ON=C(c2ccc(Cl)cc2)C1=Cc1ccc([N+](=O)[O-])s1", "note": "[I-51]", "log P": 3.70}
{"molecule": "O=C1ON=C(c2ccccc2)C1=Cc1cccs1", "note": "[U-33]", "log P": 2.91}
{"molecule": "Cc1cc(C)cc(C2=NOC(=O)C2=Cc2cccs2)c1", "note": "[I-89]", "log P": 3.78}
{"molecule": "O=C1ON=C(c2cc(F)ccc2Cl)C1=Cc1ccc([N+](=O)[O-])s1", "note": "[I-133]", "log P": 3.50}
{"molecule": "Cc1ccc(C2=NOC(=O)C2=Cc2cc(-c3ccccc3)cs2)cc1", "note": "[I-69]", "log P": 5.30}
{"molecule": "O=C1ON=C(c2cc(F)ccc2F)C1=Cc1cccs1", "note": "[I-126]", "log P": 3.07}
{"molecule": "Cc1ccc(/C=C2\\C(=O)ON=C2c2ccccc2)s1", "note": "[U-42]", "log P": 3.35}
{"molecule": "O=C1ON=C(c2cc(Br)ccc2Cl)C1=Cc1ccc(Cl)s1", "note": "[I-138]", "log P": 4.45}
{"molecule": "Cc1ccsc1C=C1C(=O)ON=C1c1ccccc1Cl", "note": "[I-18]", "log P": 3.38}
{"molecule": "COc1ccc(C2=NOC(=O)C2=Cc2sccc2C)cc1", "note": "[U-11]", "log P": 3.18}
{"tested_on": "not listed separately", "assay": "log P by HPLC on reversed-phase columns (C 18), EEC directive 79/831 Annex V.A8", "format": "physicochemical", "details": "reversed-phase C18 HPLC column; preparation examples; HPLC, acidic range pH 2.7, formic acid; read-out: log P (HCOOH)", "method": "as §1, §2"}
{"molecule": "COc1cccc(C2=NOC(=O)C2)c1", "note": "[3-(3-methoxyphenyl)isoxazol-5(4H)-one]", "chromatographic logP": 4.03}
{"molecule": "COc1cccc(C2=NOC(=O)/C2=C\\c2ccc(Cl)s2)c1", "note": "[I-37, 3-(3-methoxyphenyl)-4-(2-(5-chlorothienyl)methylene)isoxazol-5(4H)-one]", "chromatographic logP": 3.74}
{"molecule": "CC(C)(C)c1ccc(C2=NOC(=O)C2)cc1", "note": "[3-(4-tert-butylphenyl)isoxazol-5(4H)-one]", "chromatographic logP": 3.1}
{"tested_on": "caterpillars of the armyworm (Spodoptera frugiperda)", "assay": "Spodoptera frugiperda test (spray treatment)", "format": "in vivo", "details": "maize leaf discs, application rate 500 g/ha", "method": "Example J Spodoptera Frugiperda Test (Spray Treatment) [table] To produce a suitable preparation of active compound, 1 part by weight of active compound is mixed with the stated amounts of solvent and emulsifier, and the concentrate is diluted with emulsifier-containing water to the desired concentration. Discs of maize leaves (Zea mays) are sprayed with an active compound preparation of the desired concentration and, after drying, populated with caterpillars of the armyworm (Spodoptera frugiperda). After the desired period of time, the effect in % is determined. 100% means that all caterpillars have been killed; 0% means that none of the caterpillars have been killed.", "units": {"activity (caterpillars killed)": "%"}}
{"molecule": "O=C1ON=C(c2ccc(Cl)cc2)C1=Cc1cccs1", "note": "[I-5]", "activity (caterpillars killed)": 80}
{"molecule": "Cc1ccc(C=C2C(=O)ON=C2c2ccc(F)cc2)s1", "note": "[I-33]", "activity (caterpillars killed)": 80}
{"molecule": "O=C1ON=C(c2ccc(C(F)(F)F)cc2)C1=Cc1cccs1", "note": "[I-56]", "activity (caterpillars killed)": 80}
{"molecule": "COc1ccc(C2=NOC(=O)C2=Cc2ccc(C)s2)cc1", "note": "[U-9]", "activity (caterpillars killed)": 80}
{"molecule": "CC(C)(C)c1ccc(C2=NOC(=O)C2=Cc2cccs2)cc1", "note": "[I-29]", "activity (caterpillars killed)": 80}
{"molecule": "COc1cccc(C2=NOC(=O)C2=Cc2ccc(C)s2)c1", "note": "[U-12]", "activity (caterpillars killed)": 80}
{"molecule": "O=C1ON=C(c2ccccc2)C1=Cc1cccs1", "note": "[U-1]", "activity (caterpillars killed)": 80}
